Assay results as given in US8802597B2, “Herbicidal pyrimidines” (E I du Pont de Nemours and Company, priority 2003, dated 2014).
Where two headings read alike, the source gives them in different places.

Assays:
Test in all cases: Test C pre/postemergence
Type in all cases: in vivo
[1] = test system: crabgrass (Digitaria sanguinalis); details: Digitaria sanguinalis; for pest or weed control at 31 g/ha: 31 g ai/ha; for pest or weed control at 62 g/ha: 62 g ai/ha; for pest or weed control at 125 g/ha: 125 g ai/ha
Procedure, shortened: (§1)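 Greenhouse pot test: seeds treated preemergence, or plants at 2–18 cm (1- to 4-leaf stage) treated postemergence, with compound in non-phytotoxic solvent plus surfactant. Visual rating versus untreated controls after 12–14 days, scale 0 (no effect) to 100 (complete control); dash means not tested.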

[2] = test system: cocklebur (Xanthium strumarium); details: Xanthium strumarium; for pest or weed control at 31 g/ha: 31 g ai/ha; for pest or weed control at 62 g/ha: 62 g ai/ha; for pest or weed control at 125 g/ha: 125 g ai/ha
Procedure, shortened: as §1

[3] = test system: giant foxtail (Setaria faberii); details: Setaria faberi; for pest or weed control at 125 g/ha: 125 g ai/ha; for pest or weed control at 31 g/ha: 31 g ai/ha; for pest or weed control at 62 g/ha: 62 g ai/ha
Procedure, shortened: as §1

[4] = test system: common ragweed (Ambrosia elatior); details: Ambrosia artemisiifolia; for pest or weed control at 31 g/ha: 31 g ai/ha; for pest or weed control at 62 g/ha: 62 g ai/ha
Procedure, shortened: as §1

[5] = test system: morningglory (Ipomoea coccinea); details: Ipomoea; for pest or weed control at 31 g/ha: 31 g ai/ha; for pest or weed control at 62 g/ha: 62 g ai/ha; for pest or weed control at 125 g/ha: 125 g ai/ha
Procedure, shortened: as §1

[6] = test system: woolly cupgrass (Eriochloa villosa); details: Eriochloa villosa, post-emergence; Postemergence, 31 g ai/ha; read-out: Plant response rating (scale of 0 to 100), Cupgrass, Woolly
Procedure, shortened: as §1

[7] = post-emergence, Postemergence, read-out: Plant response rating (scale of 0 to 100), Crabgrass
[8] = pre-emergence, Preemergence, scale 0 to 100, 0 no effect, 100 complete control, read-out: Plant response rating, Crabgrass
[9] = post-emergence, Postemergence, read-out: Plant response rating (scale of 0 to 100), Cocklebur
[10] = pre-emergence, Preemergence, scale 0 to 100, 0 no effect, 100 complete control, read-out: Plant response rating, Cocklebur
[11] = post-emergence, Postemergence, read-out: Plant response rating (scale of 0 to 100), Foxtail, Giant
[12] = pre-emergence, Preemergence, scale 0 to 100, 0 no effect, 100 complete control, read-out: Plant response rating, Foxtail, Giant
[13] = post-emergence, Postemergence, read-out: Plant response rating (scale of 0 to 100), Ragweed
[14] = pre-emergence, Preemergence, scale 0 to 100, 0 no effect, 100 complete control, read-out: Plant response rating, Ragweed
[15] = post-emergence, Postemergence, read-out: Plant response rating (scale of 0 to 100), Morningglory
[16] = pre-emergence, Preemergence, scale 0 to 100, 0 no effect, 100 complete control, read-out: Plant response rating, Morningglory

With Nc1nc(C2CC2)nc(C(=O)OCc2ccccc2)c1Cl [Compound 78, phenylmethyl 6-amino-5-chloro-2-cyclopropyl-4-pyrimidinecarboxylate] the pest or weed control at 31 g/ha [1, 7] was 55%, the pest or weed control at 62 g/ha [1, 7] was 90% and the pest or weed control at 125 g/ha ([1]; post-emergence, Postemergence, scale 0 to 100 (0 no effect, 100 complete control), read-out: Crabgrass plant response rating) was 90%. The pest or weed control at 250 g/ha ([1]; post-emergence, Postemergence, 250 g ai/ha, scale 0 to 100, read-out: Plant response rating, Crabgrass) was 90%, the pest or weed control at 16 g/ha ([1]; pre-emergence, Preemergence, 16 g ai/ha, scale 0 to 100, 0 no effect, 100 complete control, read-out: Plant response rating, Crabgrass) was 0% and the pest or weed control at 31 g/ha [1, 8] was 5%. The pest or weed control at 62 g/ha [1, 8] was 40%, the pest or weed control at 125 g/ha ([1]; pre-emergence, Preemergence, scale 0 to 100, read-out: Plant response rating, Crabgrass) was 45% and the pest or weed control at 31 g/ha [2, 9] was 90%. It also gave a pest or weed control at 62 g/ha [2, 9] of 100%, a pest or weed control at 125 g/ha ([2]; post-emergence, Postemergence, scale 0 to 100 (0 no effect, 100 complete control), read-out: Cocklebur plant response rating) of 100% and a pest or weed control at 250 g/ha ([2]; post-emergence, Postemergence, 250 g ai/ha, scale 0 to 100, read-out: Plant response rating, Cocklebur) of 100%. The pest or weed control at 16 g/ha ([2]; pre-emergence, Preemergence, 16 g ai/ha, scale 0 to 100, 0 no effect, 100 complete control, read-out: Plant response rating, Cocklebur) was 55%, the pest or weed control at 31 g/ha [2, 10] was 70% and the pest or weed control at 62 g/ha [2, 10] was 90%. For the same compound, the pest or weed control at 125 g/ha ([2]; pre-emergence, Preemergence, scale 0 to 100, read-out: Plant response rating, Cocklebur) was 90%, the pest or weed control at 125 g/ha ([3]; post-emergence, Postemergence, scale 0 to 100 (0 no effect, 100 complete control), read-out: Foxtail, Giant plant response rating) was 65% and the pest or weed control at 31 g/ha [3, 11] was 0%. The pest or weed control at 62 g/ha [3, 11] was 30%, the pest or weed control at 250 g/ha ([3]; post-emergence, Postemergence, 250 g ai/ha, scale 0 to 100, read-out: Plant response rating, Foxtail, Giant) was 70% and the pest or weed control at 16 g/ha ([3]; pre-emergence, Preemergence, 16 g ai/ha, scale 0 to 100, 0 no effect, 100 complete control, read-out: Plant response rating, Foxtail, Giant) was 0%. It also gave a pest or weed control at 31 g/ha [3, 12] of 0%, a pest or weed control at 62 g/ha [3, 12] of 0% and a pest or weed control at 125 g/ha ([3]; pre-emergence, Preemergence, scale 0 to 100, read-out: Plant response rating, Foxtail, Giant) of 0%. It also gave a pest or weed control at 31 g/ha [4, 13] of 70%, a pest or weed control at 62 g/ha [4, 13] of 85% and a pest or weed control at 125 g/ha ([4]; post-emergence, Postemergence, 125 g ai/ha, scale 0 to 100 (0 no effect, 100 complete control), read-out: Ragweed plant response rating) of 95%. It also gave a pest or weed control at 250 g/ha ([4]; post-emergence, Postemergence, 250 g ai/ha, scale 0 to 100, read-out: Plant response rating, Ragweed) of 100%, a pest or weed control at 16 g/ha ([4]; pre-emergence, Preemergence, 16 g ai/ha, scale 0 to 100, 0 no effect, 100 complete control, read-out: Plant response rating, Ragweed) of 10% and a pest or weed control at 31 g/ha [4, 14] of 65%. It also gave a pest or weed control at 62 g/ha [4, 14] of 80%, a pest or weed control at 31 g/ha [5, 15] of 90% and a pest or weed control at 62 g/ha [5, 15] of 90%. The pest or weed control at 125 g/ha ([5]; post-emergence, Postemergence, scale 0 to 100 (0 no effect, 100 complete control), read-out: Morningglory plant response rating) was 100%, the pest or weed control at 250 g/ha ([5]; post-emergence, Postemergence, 250 g ai/ha, scale 0 to 100, read-out: Plant response rating, Morningglory) was 100% and the pest or weed control at 16 g/ha ([5]; pre-emergence, Preemergence, 16 g ai/ha, scale 0 to 100, 0 no effect, 100 complete control, read-out: Plant response rating, Morningglory) was 0%. It also gave a pest or weed control at 31 g/ha [5, 16] of 70%, a pest or weed control at 62 g/ha [5, 16] of 85% and a pest or weed control at 125 g/ha ([5]; pre-emergence, Preemergence, scale 0 to 100, read-out: Plant response rating, Morningglory) of 100%. The pest or weed control at 31 g/ha [6] was 50%.
